Assay results from patent US20160075653A1, “NEMATICIDAL N-(PHENYLCYCLOALKYL)CARBOXAMIDES AND N-(PHENYLCYCLOALKYL)THIOCARBOXAMIDES” (BAYER CROPSCIENCE AKTIENGESELLSCHAFT, priority 2013, published 2016).

Assay: Measurement of log P values by HPLC on reversed phase columns (methods [a] pH 2.3, [b] pH 2.7, [c] pH 7.8)
Assay type: physicochemical
Settings: for logP: HPLC reversed phase; for chromatographic logP: reversed phase HPLC columns, pH 2.7, HPLC reversed phase, read-out: logP
Procedure, shortened: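 Determined per EEC Directive 79/831 Annex V.A8 by reversed-phase HPLC, 10-95% acetonitrile gradient: [a] pH 2.3, 0.1% phosphoric acid; [b] LC-MS, pH 2.7, 0.1% formic acid; [c] LC-MS, pH 7.8, 0.001 molar ammonium hydrogen carbonate. Calibrated with C3-C16 alkan-2-ones by retention-time interpolation.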

logP (method [b], pH 2.7)	logP (method [b] (pH 2.7))	Structure (SMILES)	further results
2.59^[b]		Cn1nc(C(F)F)c(C(=O)NC2CC2c2cccc(F)c2)c1F (stereo not drawn) [Example 187]	
3.00^[b]		Cn1nc(C(F)F)c(C(=O)NC2CC2c2ccccc2C(F)(F)F)c1F (stereo not drawn) [Example 189]	
3.63^[b]		CN(C(=O)c1c(C(F)F)nn(C)c1Cl)C1CCCCC1c1ccccc1 (stereo not drawn) [Example 197]	
3.27^[b]		O=C(NC1CC1c1ccc(Cl)cc1)c1ccccc1C(F)(F)F (stereo not drawn) [Example 201]	logP (method [c], pH 7.8): 3.21^[c];
3.66^[b]		O=C(NC1CC1c1ccc(Cl)cc1Cl)c1ccccc1F (stereo not drawn) [Example 205]	logP (method [c], pH 7.8): 3.55^[c];
3.58^[b]		O=C(NC1CC1c1ccc(Cl)cc1Cl)c1ccccc1Br (stereo not drawn) [Example 207]	logP (method [c], pH 7.8): 3.52^[c];
3.13^[b]		O=C(NC1CC1c1ccccc1Cl)c1ccccc1C(F)(F)F (stereo not drawn) [Example 230]	
2.64^[b]		Cn1cc(C(=O)NC2CC2c2ccccc2C(F)(F)F)c(C(F)F)n1 (stereo not drawn) [Example 234]	
	3.08^[b]	O=C(NC1CC1c1ccc(Cl)cc1)c1c(F)cccc1C(F)(F)F (stereo not drawn) [Example 270]	logP (method [c] pH 7.8): 3.03^[c];
	2.77^[b]	O=C(NC1CC1c1ccc(Cl)cc1)c1ccccc1Cl (stereo not drawn) [Example 275]	logP (method [c] pH 7.8): 2.71^[c];
	3.45^[b]	O=C(NC1CCCC1c1ccc(Cl)cc1)c1ccccc1Cl (stereo not drawn) [Example 278]	
	3.64^[b]	O=C(NC1CCCC1c1ccc(Cl)cc1)c1ccccc1I (stereo not drawn) [Example 280]	
	2.81^[b]	O=C(NC1CCCC1c1ccc(Cl)cc1)c1cccnc1Cl (stereo not drawn) [Example 281]	
	3.28^[b]	O=C(NC1CCCC1c1ccc(Cl)cc1)c1c(F)cccc1F (stereo not drawn) [Example 282]	
	3.11^[b]	Cc1nc(C)c(C(=O)NC2CCCC2c2ccc(Cl)cc2)s1 (stereo not drawn) [Example 284]	
	3.81^[b]	O=C(NC1CCCC1c1ccccc1C(F)(F)F)c1ccccc1I (stereo not drawn) [Example 285]	
	3.06^[b]	Cn1cc(C(=O)NC2CCCC2c2ccccc2C(F)(F)F)c(C(F)F)n1 (stereo not drawn) [Example 287]	
	2.24^[b]	Cc1nn(C)cc1C(=O)NC1CCCC1c1ccccc1Cl (stereo not drawn) [Example 292]	
	3.51^[b]	O=C(NC1CCCC1c1ccccc1Cl)c1ccccc1I (stereo not drawn) [Example 295]	
	3.56^[b]	O=C(NC1CCCC1c1ccccc1C(F)(F)F)c1ccccc1Cl (stereo not drawn) [Example 300]	

Further lines, the compound ahead of its results:

Structure (SMILES)	logP (method [b], pH 2.7)	logP (method [b] (pH 2.7))	further results
Cn1nc(C(F)(F)F)c(C(=O)NC2CC2c2ccccc2)c1F (stereo not drawn) [Example 178]	2.63^[b]		
Cn1nc(C(F)F)c(C(=O)NC2CC2c2ccc(Cl)cc2)c1F (stereo not drawn) [Example 179]	2.61^[b]		
Cn1nc(C(F)F)c(C(=O)N(C2CC2)C2CCCCC2(C)c2ccccc2)c1F (stereo not drawn) [Example 180]	4.18^[b]		
Cn1nc(C(F)F)c(C(=O)NC2CCCCC2c2ccccc2)c1F (stereo not drawn) [Example 181]	3.13^[b]		
Cn1nc(C(F)F)c(C(=O)NC2CCCCC2c2ccccc2)c1F (stereo not drawn) [Example 182]	3.29^[b]		
Cn1nc(C(F)F)c(C(=O)NC2CCCCC2c2ccccc2)c1Cl (stereo not drawn) [Example 183]	3.51^[b]		
Cn1nc(C(F)F)c(C(=O)NC2CCCCC2c2ccccc2)c1Cl (stereo not drawn) [Example 184]	3.33^[b]		
Cn1cc(C(=O)NC2CCCCC2c2ccccc2)c(C(F)F)n1 (stereo not drawn) [Example 185]	2.76^[b]		
Cn1cc(C(=O)NC2CCCCC2c2ccccc2)c(C(F)F)n1 (stereo not drawn) [Example 186]	3.00^[b]		
Cn1nc(C(F)F)c(C(=O)NC2CC2c2ccc(F)cc2)c1F (stereo not drawn) [Example 188]	2.59^[b]		
Cn1nc(C(F)F)c(C(=S)N(C2CC2)C2CCCCC2(C)c2ccccc2)c1F (stereo not drawn) [Example 190]	5.01^[b]		
Cn1nc(C(F)F)c(C(=O)NC2CC2c2cccc(F)c2)c1Cl (stereo not drawn) [Example 191]	2.75^[b]		
Cn1nc(C(F)F)c(C(=O)NC2CC2c2ccc(F)cc2)c1Cl (stereo not drawn) [Example 192]	2.75^[b]		
Cn1nc(C(F)F)c(C(=O)NC2CC2c2ccccc2C(F)(F)F)c1Cl (stereo not drawn) [Example 193]	3.15^[b]		
CN(C(=O)c1c(C(F)F)nn(C)c1F)C1CCCCC1c1ccccc1 (stereo not drawn) [Example 196]	3.27^[b]		
O=C(NC1CC1c1ccc(Cl)cc1)c1ccccc1Cl (stereo not drawn) [Example 198]	3.09^[b]		logP (method [c], pH 7.8): 3.02^[c];
O=C(NC1CC1c1ccc(Cl)cc1)c1ccccc1I (stereo not drawn) [Example 199]	3.24^[b]		logP (method [c], pH 7.8): 3.19^[c];
O=C(NC1CC1c1ccc(Cl)cc1)c1c(F)cccc1F (stereo not drawn) [Example 200]	2.94^[b]		logP (method [c], pH 7.8): 2.89^[c];
O=C(NC1CC1c1ccc(Cl)cc1)c1sccc1I (stereo not drawn) [Example 202]	3.56^[b]		logP (method [c], pH 7.8): 3.50^[c];
O=C(NC1CC1c1ccc(Cl)cc1)c1occc1Br (stereo not drawn) [Example 204]	3.04^[b]		logP (method [c], pH 7.8): 2.98^[c];
O=C(NC1CC1c1ccc(Cl)cc1Cl)c1ccccc1Cl (stereo not drawn) [Example 206]	3.57^[b]		logP (method [c], pH 7.8): 3.47^[c];

Structure (SMILES)	logP (method [b], pH 2.7)	logP (method [b] (pH 2.7))	further results
O=C(NC1CC1c1ccc(Cl)cc1Cl)c1ccccc1I (stereo not drawn) [Example 208]	3.74^[b]		logP (method [c], pH 7.8): 3.64^[c];
O=C(NC1CC1c1ccc(Cl)cc1Cl)c1c(F)cccc1F (stereo not drawn) [Example 209]	3.36^[b]		logP (method [c], pH 7.8): 3.29^[c];
O=C(NC1CC1c1ccc(Cl)cc1Cl)c1ccccc1C(F)(F)F (stereo not drawn) [Example 210]	3.73^[b]		logP (method [c], pH 7.8): 3.62^[c];
O=C(NC1CC1c1ccc(Cl)cc1Cl)c1cccnc1Cl (stereo not drawn) [Example 211]	2.82^[b]		logP (method [c], pH 7.8): 2.77^[c];
O=C(NC1CCC1c1c(F)cccc1F)c1ncc(C(F)(F)F)cc1Cl (stereo not drawn) [Example 228]	3.61^[b]		
O=C(NC1CC1c1ccccc1Cl)c1ccccc1I (stereo not drawn) [Example 229]	3.14^[b]		
Cn1cc(C(=O)NC2CC2c2ccccc2Cl)c(C(F)F)n1 (stereo not drawn) [Example 231]	2.45^[b]		
O=C(NC1CC1c1ccccc1C(F)(F)F)c1ccccc1I (stereo not drawn) [Example 232]	3.31^[b]		
O=C(NC1CC1c1ccccc1C(F)(F)F)c1ccccc1C(F)(F)F (stereo not drawn) [Example 233]	3.29^[b]		
O=C(NC1CCC1c1ccccc1Cl)c1ncc(C(F)(F)F)cc1Cl (stereo not drawn) [Example 237]	3.96^[b]		
O=C(NC1CCC1c1ccccc1Cl)c1ccccc1Cl (stereo not drawn) [Example 239]	3.30^[b]		
O=C(NC1CC1c1ccc(Cl)cc1)c1ccccc1Br (stereo not drawn) [Example 272]		2.82^[b]	logP (method [c] pH 7.8): 2.76^[c];
Cc1nn(C)cc1C(=O)NC1CCCC1c1ccc(Cl)cc1 (stereo not drawn) [Example 277]		2.31^[b]	
O=C(NC1CCCC1c1ccc(Cl)cc1)c1ccccc1C(F)(F)F (stereo not drawn) [Example 279]		3.64^[b]	
O=C(NC1CCCC1c1ccc(Cl)cc1)c1cccnc1C(F)(F)F (stereo not drawn) [Example 283]			chromatographic logP (method [b] (pH 2.7)): 2.83
O=C(NC1CCCC1c1ccccc1C(F)(F)F)c1ccccc1C(F)(F)F (stereo not drawn) [Example 286]		3.79^[b]	
O=C(N[C@@H]1CCC[C@@H]1c1ccccc1C(F)(F)F)c1cccnc1C(F)(F)F [Example 290]			chromatographic logP (method [b] (pH 2.7)): 3.29
Cc1nc(C)c(C(=O)NC2CCCC2c2ccccc2Cl)s1 (stereo not drawn) [Example 291]		2.73^[b]	
O=C(NC1CCCC1c1ccccc1Cl)c1cccnc1Cl (stereo not drawn) [Example 293]		2.64^[b]	
O=C(NC1CCCC1c1ccccc1Cl)c1ccccc1Cl (stereo not drawn) [Example 294]		3.42^[b]	
O=C(NC1CCCC1c1ccccc1C(F)(F)F)c1cccnc1Cl (stereo not drawn) [Example 301]		2.90^[b]	
